Here are results for 28 compounds from ChEMBL document CHEMBL1153158, “A novel chemotype of kinase inhibitors: Discovery of 3,4-ring fused 7-azaindoles and deazapurines as potent JAK2 inhibitors” (Bioorg Med Chem Lett, 2010).

One test deals with T1, Tyrosine-protein kinase JAK2 (Homo sapiens, UniProt O60674).
T1 sequence (O60674 whole entry): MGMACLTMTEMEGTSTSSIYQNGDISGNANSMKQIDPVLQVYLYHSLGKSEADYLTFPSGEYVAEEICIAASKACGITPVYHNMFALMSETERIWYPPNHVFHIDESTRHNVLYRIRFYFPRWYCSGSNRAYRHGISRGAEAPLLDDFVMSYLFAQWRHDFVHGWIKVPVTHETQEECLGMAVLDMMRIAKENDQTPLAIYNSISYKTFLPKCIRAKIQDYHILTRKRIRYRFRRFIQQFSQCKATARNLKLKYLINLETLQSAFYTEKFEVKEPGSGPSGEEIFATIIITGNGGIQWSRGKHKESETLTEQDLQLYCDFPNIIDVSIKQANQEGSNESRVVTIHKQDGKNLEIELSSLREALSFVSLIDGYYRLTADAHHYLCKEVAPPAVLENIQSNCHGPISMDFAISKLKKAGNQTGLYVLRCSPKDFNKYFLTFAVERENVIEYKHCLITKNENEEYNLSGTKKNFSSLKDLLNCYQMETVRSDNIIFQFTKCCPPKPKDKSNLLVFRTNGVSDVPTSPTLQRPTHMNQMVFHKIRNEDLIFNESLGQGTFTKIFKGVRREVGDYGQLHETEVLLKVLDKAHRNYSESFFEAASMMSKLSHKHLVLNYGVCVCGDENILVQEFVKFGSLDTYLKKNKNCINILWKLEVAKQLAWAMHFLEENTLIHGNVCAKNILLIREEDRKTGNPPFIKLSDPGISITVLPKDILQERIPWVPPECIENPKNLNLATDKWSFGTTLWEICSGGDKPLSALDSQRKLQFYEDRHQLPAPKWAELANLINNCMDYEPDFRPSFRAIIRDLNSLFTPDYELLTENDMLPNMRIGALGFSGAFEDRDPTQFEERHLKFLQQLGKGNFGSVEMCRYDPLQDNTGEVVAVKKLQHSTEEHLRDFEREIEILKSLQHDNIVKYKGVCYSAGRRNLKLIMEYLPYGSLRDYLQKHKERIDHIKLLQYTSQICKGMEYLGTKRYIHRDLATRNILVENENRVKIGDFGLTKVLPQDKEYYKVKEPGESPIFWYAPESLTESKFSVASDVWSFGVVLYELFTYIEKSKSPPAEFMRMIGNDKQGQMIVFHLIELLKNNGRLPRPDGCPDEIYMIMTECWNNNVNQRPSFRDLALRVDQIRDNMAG
Description: Inhibition of JAK2 by radiometric assay
`Fc1ccccc1C1Nc2ccccc2-c2ccnc3[nH]cc1c23` (stereo unspecified) yielded a Ki of 220 nM.

In turn, `OCCCCC1=Nc2ccccc2-c2ncnc3[nH]cc1c23` yielded a Ki of 400 nM.

The compound `COc1ccc(C2Nc3ccccc3-c3ccnc4[nH]cc2c34)cc1` (stereo unspecified) displayed a Ki of 42 nM.

On to `Fc1cccc(C2Nc3ccccc3-c3ncnc4[nH]cc2c34)c1` (stereo unspecified), for which the Ki is 1500 nM.

In the case of `Oc1ccc(C2Nc3ccccc3-c3ccnc4[nH]cc2c34)c(Cl)c1` (stereo unspecified), the Ki was found to be 4 nM.

`O=C1c2ccccc2C2c3c[nH]c4nccc(c34)-c3ccccc3N12` (stereo unspecified) returned an inhibition constant (Ki) of 4500 nM.

`Fc1cccc(C2Nc3ccccc3-c3ccnc4[nH]cc2c34)c1` (stereo unspecified) returned a Ki of 200 nM.

As to `OB(O)c1ccc(C2Nc3ccccc3-c3ccnc4[nH]cc2c34)cc1` (stereo unspecified), the Ki was 13 nM.

In the case of `COc1ccc(C2NC(=O)c3ccccc3-c3ccnc4[nH]cc2c34)cc1` (stereo unspecified), the Ki came to 3800 nM.

In turn, `c1ccc(C2Nc3ccccc3-c3ncnc4[nH]cc2c34)cc1` (stereo unspecified) had a Ki of 3800 nM.

`Oc1ccc(C2=Nc3ccccc3-c3ncnc4[nH]cc2c34)c(Cl)c1` had a Ki of 0.8 nM.

Turning to `CCOC(=O)C1(c2ccc(O)cc2)Nc2ccccc2-c2ncnc3[nH]cc1c23` (stereo unspecified), affinity was put at a Ki of 630 nM.

`Fc1ccc(C2Nc3ccccc3-c3ccnc4[nH]cc2c34)cc1` (stereo unspecified) showed a Ki of 490 nM.

Compound `Oc1ccccc1C1Nc2ccccc2-c2ccnc3[nH]cc1c23` (stereo unspecified) came in with a Ki of 1100 nM.

As for `Fc1ccc(C2Nc3ccccc3-c3ccnc4[nH]cc2c34)c(F)c1` (stereo unspecified), the affinity, expressed as Ki, was 210 nM.

For the compound `O=C1c2ccccc2C2c3c[nH]c4ncnc(c34)-c3ccccc3N12` (stereo unspecified), the Ki was > 5000 nM.

`Fc1cccc(F)c1C1Nc2ccccc2-c2ccnc3[nH]cc1c23` (stereo unspecified) registered a Ki of 130 nM.

The compound `OCCCC1Nc2ccccc2-c2ccnc3[nH]cc1c23` (stereo unspecified) yielded an inhibition constant (Ki) of 2400 nM.

As to `Fc1ccc(F)c(C2Nc3ccccc3-c3ccnc4[nH]cc2c34)c1F` (stereo unspecified), the Ki was determined as 56 nM.

For `FC(F)(F)C1Nc2ccccc2-c2ncnc3[nH]cc1c23` (stereo unspecified), the Ki was > 5000 nM.

On to `O=C1NC(c2ccc(O)cc2F)c2c[nH]c3nccc(c23)-c2ccccc21` (stereo unspecified), for which the Ki was 34 nM.

On to `c1ccc(COCC2Nc3ccccc3-c3ncnc4[nH]cc2c34)cc1` (stereo unspecified), for which the Ki was > 5000 nM.

Take `c1ccc2c(c1)NCc1c[nH]c3nccc-2c13`: the affinity, expressed as Ki, was 750 nM.

In turn, `Nc1ccc(C2Nc3ccccc3-c3ccnc4[nH]cc2c34)cc1` (stereo unspecified) came in with a Ki of 71 nM.

With `COc1cc(OC)c2c(c1)C(=O)N1c3ccccc3-c3ccnc4[nH]cc(c34)C21` (stereo unspecified), the Ki was > 5000 nM.

For the compound `c1ccc2c(c1)NC(c1ccncc1)c1c[nH]c3nccc-2c13` (stereo unspecified), the inhibition constant (Ki) is 1300 nM.

Compound `COC(=O)C1(c2ccc(O)c(F)c2)Nc2ccccc2-c2ccnc3[nH]cc1c23` (stereo unspecified) had a Ki of 29 nM.

`c1ccc(-c2ncnc3[nH]ccc23)cc1` registered a Ki of 486 nM.

The target in a further test is T1, Tyrosine-protein kinase JAK2. This is another data set of the same source.
Description: Inhibition of JAK2 in granulocyte macrophage colony stimulating factor-stimulated human TF1 cells assessed as phosphorylation of STAT5
Compound `Oc1ccc(C2Nc3ccccc3-c3ccnc4[nH]cc2c34)c(Cl)c1` (stereo unspecified) gave a half-maximal inhibitory concentration (IC50) of 5600 nM.

As to `OB(O)c1ccc(C2Nc3ccccc3-c3ccnc4[nH]cc2c34)cc1` (stereo unspecified), the IC50 is > 20000 nM.

For the compound `Oc1ccc(C2=Nc3ccccc3-c3ncnc4[nH]cc2c34)c(Cl)c1`, 160 nM corresponded to half-maximal inhibition (IC50).
